According to PMC7904743, “WIDOCK: a reactive docking protocol for virtual screening of covalent inhibitors” (Journal of Computer-Aided Molecular Design, 2021):
“Also recorded” adds a separate entry of the source.

Key:
[1] = system: KRAS^G12C; parameters: method as in PMID 28621541; details: > 50% labeling at 100 μM considered active; cited from earlier work
[2] = Kinetic measurement of adduct formation with L-glutathione (GSH) by HPLC–MS; format: physicochemical; parameters: unit not given here
Protocol: Electrophilic fragments tested against MurA, CatB and MAO-A (25–53, structures shown in Supporting Figure S2 and SMILES provided in Supporting Table S1) represent eight different warhead chemotypes reacting via two reaction mechanisms: Michael-type nucleophilic addition and nucleophilic substitution. The intrinsic thiol reactivities (see Table 1) were determined by kinetic measurement of adduct formation with L-glutathione (GSH), a widely used cysteine surrogate, by an HPLC–MS methodology, as described in the referred study.

[3] = molecular target: T1, CatB (Homo sapiens, UniProt P07858); assay: CatB single point enzyme activity assay (residual activity); details: CatB residual activity; active if lower than 60%
Protocol: (§1) These fragments were measured in single point enzyme activity assays at 100 μM concentration against MurA and CatB.

[4] = molecular target: T2, MurA (Escherichia coli, UniProt P0A749); details: cited from earlier work
[5] = half-life of adduct formation with L-glutathione; cited from earlier work
[6] = molecular target: T2, MurA; details: MurA residual activity; active if lower than 60%
Protocol: as §1

[7] = molecular target: T3, Recombinant human microsomal MAO-A (Homo sapiens, UniProt P21397); assay: MAO-A activity assay (fluorimetric, Amplex Red, p-tyramine); format: biochemical; details: MAO-A residual activity; active if lower than 60%
T3 construct: purchased Sigma Aldrich; host or cells: baculovirus infected insect cells (BTI-TN-5B1-4)
T3 sequence (P21397 1-527): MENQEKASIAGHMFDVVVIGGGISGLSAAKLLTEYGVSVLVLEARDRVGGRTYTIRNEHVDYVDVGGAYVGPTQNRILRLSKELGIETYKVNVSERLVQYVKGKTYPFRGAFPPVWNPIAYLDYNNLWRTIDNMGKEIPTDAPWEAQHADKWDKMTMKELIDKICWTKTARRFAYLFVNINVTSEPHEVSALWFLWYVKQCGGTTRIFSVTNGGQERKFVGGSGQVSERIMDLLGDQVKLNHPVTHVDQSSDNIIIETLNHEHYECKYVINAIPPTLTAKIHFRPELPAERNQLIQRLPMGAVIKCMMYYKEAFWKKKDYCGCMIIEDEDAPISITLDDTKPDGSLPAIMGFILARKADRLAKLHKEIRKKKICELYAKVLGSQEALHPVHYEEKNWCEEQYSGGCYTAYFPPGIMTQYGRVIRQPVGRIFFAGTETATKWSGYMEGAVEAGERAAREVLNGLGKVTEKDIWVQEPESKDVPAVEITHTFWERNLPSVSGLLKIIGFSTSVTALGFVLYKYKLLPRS
Protocol: The effects of the test compounds on MAO-A were investigated using a fluorimetric assay, following a previously described methodology. The inhibitory activity of the compounds was evaluated by their effects on the production of hydrogen peroxide (H2O2) from p-tyramine. The production of H2O2 was detected using Amplex Red reagent in the presence of horseradish peroxidase, where a highly sensitive fluorescent product, resorufin, is produced at stoichiometric amounts. Recombinant human microsomal MAO-A enzyme expressed in baculovirus infected insect cells (BTI-TN-5B1-4), horse-radish peroxidase (type II, lyophilized powder), and p-tyramine hydrochloride were obtained from Sigma Aldrich. 10-Acetyl-3,7-dihydroxyphenoxazine (Amplex Red reagent) was synthesized as described in the literature.
Briefly, 100 µL 50 mM sodium phosphate buffer (pH 7.4, 0.05% Triton X-114) containing the compounds and MAO-A were incubated for 30 min at 37 °C in a flat-bottomed black 96-well microplate, and placed in a dark microplate reader chamber. After the pre-incubation, the reaction was started by adding the final concentrations of 200 µM Amplex Red reagent, 2 U/mL horseradish peroxidase, and 1 mM p-tyramine (final volume, 200 µL). The production of resorufin was quantified based on the fluorescence generated (λex = 530 nm, λem = 590 nm) at 37 °C over a period of 30 min, during which time the fluorescence increased linearly. For control experiments, DMSO was used instead of the appropriate dilutions of the compounds in DMSO. To determine the blank value (b), phosphate-buffered solution replaced the enzyme solution. The initial velocities were calculated from the trends obtained, with each measurement carried out in duplicate. The specific fluorescence emission to obtain the final result was calculated after subtraction of the blank activity (b).

[8] = molecular target: T1, CatB; parameters: method as in PMID 30321804; details: residual activity at 100 μM, single point; cited from earlier work
[9] = molecular target: T4, human MAO-A (Homo sapiens, UniProt P21397); assay: Labelling of human MAO-A, tryptic digestion and LC–MS/MS; format: binding; details: 24 h at 4 °C, tryptic digestion
T4 sequence (P21397 1-527): T3 sequence (P21397 1-527)

T2 sequence (P0A749 whole entry): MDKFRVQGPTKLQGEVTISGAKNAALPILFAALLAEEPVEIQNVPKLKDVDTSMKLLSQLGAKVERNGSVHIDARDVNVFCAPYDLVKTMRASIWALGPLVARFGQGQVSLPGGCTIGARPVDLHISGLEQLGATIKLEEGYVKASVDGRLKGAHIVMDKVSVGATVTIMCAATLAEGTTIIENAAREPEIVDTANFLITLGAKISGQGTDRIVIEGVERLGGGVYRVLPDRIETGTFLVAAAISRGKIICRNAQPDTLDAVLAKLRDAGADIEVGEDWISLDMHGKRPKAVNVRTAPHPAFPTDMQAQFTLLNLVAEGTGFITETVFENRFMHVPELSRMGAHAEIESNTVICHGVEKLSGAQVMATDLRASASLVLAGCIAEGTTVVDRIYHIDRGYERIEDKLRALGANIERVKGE

Cc1ccc2[nH]ncc2c1-c1c(Cl)cc2c(N3CCC(NC(=O)CCl)CC3)ncnc2c1F [Compound 17, c1n[nH]c(c12)ccc(C)c2-c(c(Cl)c3)c(F)c(c34)ncnc4N5CCC(CC5)NC(=O)CCl]
experimental activity class against KRAS^G12C [1]: experimental actives

Cc1ccc2[nH]ncc2c1-c1c(Cl)cc2c(N3CCN(C(=O)n4ccnc4)CC3)ncnc2c1F [Compound 14, c1n[nH]c(c12)ccc(C)c2-c(c(Cl)c3)c(F)c(c34)ncnc4N5CCN(CC5)C(=O)n6ccnc6]
experimental activity class against KRAS^G12C [1]: experimental actives

C/C=C/C#N [Compound 28, C/C=C/C#N]
Reactivity, Experimental ln(k) vs GSH [2]: -4.085 | RA [3]: 87% | MurA RA (%) ([4]; residual activity at 100 μM, single point): 101% | GSH half-life [5]: 41.2 h | RA [6]: 101% | RA [7]: 81% | CatB RA (%) [8]: 87%

C=CC(=O)Nc1cc(C(F)(F)F)cc(C(F)(F)F)c1 [Compound 32, C=CC(=O)Nc1cc(C(F)(F)F)cc(C(F)(F)F)c1]
experimental activity class against MurA ([4]; < 60% residual activity at 100 μM considered active): experimental MurA actives | covalent labelling of MAO-A (MS/MS) [9]: double modified; also recorded: forms a covalent bond with Cys323
